Earlier results on one compound are cited in patent publication US8182834B2, “Ternary non-lamellar lipid compositions” (Camurus AB, priority 2004, dated 2012).

In the case of `CCCCCCCC/C=C\CCCCCCCC(=O)OCC(O)CO` (centres unmarked) [glycerol monooleate], under “room temperature”, the equilibrium water solubility was ~10^−7 M. Besides, the Equilibrium solubility concentration (water, 25 ° C.) is on record as ~10^−7 M.
